# According to paper PMC11406518, “Intranasal Administration of Bedaquiline-Loaded Fucosylated Liposomes Provides Anti-Tubercular Activity while Reducing the Potential for Systemic Side Effects” (ACS Infectious Diseases, 2024):
# Columns and labels:
# [1] = system: Mtb H37Rv in murine bone marrow-derived macrophages; assay: in vitro antitubercular activity in infected murine bone marrow-derived macrophages; type: cell-based, Mycobacterium tuberculosis; conditions: primary BMDM infected with H37Rv; doses 1 and 0.1 μg/mL
# [2] = system: mycobacterial ATP synthase; parameters: method as in PMID 20521931; conditions: selectivity; cited from earlier work
# H37Rv strain of Mtb = system: H37Rv strain of Mtb; parameters: method as in PMID 22155815; conditions: cited from earlier work
# [3] = parameters: method as in PMID 35112802; conditions: TargoSphere platform; cited from earlier work
# [4] = estimated; 25 °C; cited from earlier work
# [5] = estimated; cited from earlier work
# [6] = cited from earlier work
# mycobacteria = conditions: cited from earlier work
# [7] = parameters: method as in PMID 22155815, PMID 34370588; conditions: in vitro; cited from earlier work
# [8] = parameters: method as in PMID 22155815; conditions: oral route; cited from earlier work
# [9] = coadministration with high-fat meals
smiles,measurement,setting,value
"COc1nc2ccc(Br)cc2cc1[C@@H](c1ccccc1)[C@@](O)(CCN(C)C)c1cccc2ccccc12 [BDQ, Bedaquiline]",reduction in CFU/mL,[1],significant reductions in CFU/mL
same,higher affinity for mycobacterial ATP synthase versus eukaryotic ATP synthase,[2],"> 20,000"
same,minimum bactericidal concentration (MBC),H37Rv strain of Mtb,0.3 µg/mL
same,minimum inhibitory concentration (MIC),H37Rv strain of Mtb,0.06 µg/mL
same,loading capacity,[3],5–7 % of the total mass
same,solubility in aqueous media,[4],2 ng/mL
same,logP,[5],7.74
same,bioavailability,[6]; administered orally,high bioavailability
same,median tmax,[6]; administered orally,~5 h
same,increase of AUC with food,[6]; [9],2 fold
same,increase of Cmax with food,[6]; [9],2 fold
same,protein binding,[6]; in vivo,> 99%
same,terminal elimination half-life,[6]; in vivo,4–5 months
same,volume of distribution,[6]; in vivo,164 L
"CNCCC(O)(c1cccc2ccccc12)C(c1ccccc1)c1cc2cc(Br)ccc2nc1OC (stereo not drawn) [M2, N-desmethyl-bedaquiline]","antimycobacterial activity, fold lower than BDQ",mycobacteria,4–6 fold
same,cytotoxicity and phospholipidogenesis,[7],higher cytotoxicity and phospholipidogenesis
same,AUCLung:AUCplasma ratio,[8],100–200
C[C@H]1COc2c(N3CCN(C)CC3)c(F)cc3c(=O)c(C(=O)O)cn1c23 [levofloxacin],encapsulation efficiency,[3],66–80%
